Assay results published in patent US6030940A, “Peptide analog inhibitors of urokinase receptor activity” (Chiron Corporation, priority 1997, dated 2000).
Where “and” joins values, the source holds several entries; their conditions need not be identical. Equal entries are not always repeated. Where two headings read alike, the source gives them in different places. Square brackets hold non-standard residues; d marks the D form. Ends that are not written are not given here. Peptide text beside a SMILES is read from it. 1Nal = N[C@@H](Cc1cccc2ccccc12)C(=O)O

How the values were obtained:
soluble uPAR = biological target: T1, soluble uPAR (Homo sapiens, UniProt Q03405); experiment: 125I-ATF competition binding to immobilized soluble uPAR (Activity Assay); conditions: competition with iodinated human uPA ATF tracer (100-500 pM), 2h at room temperature, PBS/0.1% BSA, triplicate
T1 construct: Purified soluble uPAR was biotinylated
Text: Purified soluble uPAR was biotinylated with NHS-biotin (Molecular Probes) and immobilized at 0.3 Tg/mL in phosphate-buffered saline (PBS)/0.1% BSA on streptavidin-coated Immulon-2 96-well Removawell plates. Human uPA N-terminal fragment (ATF; from M. Shuman, University of California, San Francisco) was iodinated by the Iodo-Gen method (Pierce). Unincorporated ^125 I was separated from labeled protein by Sephadex G-25 chromatography. The specific activity of the labeled protein was between 5×10^5 and 1×10^6 […]. The iodinated tracer (100-500 pM) was incubated with the peptides prepared in Example 1 triplicate for 2h at room temperature in PBS/0.1% BSA in a total volume of 200 TL. The plates were washed with PBS/0.1% BSA 3X, and remaining bound radioactivity was measured on an LKB 1277 Gammamaster. Scatchard analysis was performed by using the LIGAND program (Biosoft, Milltown, N.J.).

uPAR = uPAR (Homo sapiens, UniProt Q03405); conditions: E. Appella et al., J Biol Chem (1987), cited from earlier work
[1] = U937 fibroblast cells; S. A. Rabbani et al.; cited from earlier work
[2] = tested on: SaOS-2 osteosarcoma cell line; conditions: S. A. Rabbani et al.; cited from earlier work

T1 sequence (Q03405 23-305 limits assumed): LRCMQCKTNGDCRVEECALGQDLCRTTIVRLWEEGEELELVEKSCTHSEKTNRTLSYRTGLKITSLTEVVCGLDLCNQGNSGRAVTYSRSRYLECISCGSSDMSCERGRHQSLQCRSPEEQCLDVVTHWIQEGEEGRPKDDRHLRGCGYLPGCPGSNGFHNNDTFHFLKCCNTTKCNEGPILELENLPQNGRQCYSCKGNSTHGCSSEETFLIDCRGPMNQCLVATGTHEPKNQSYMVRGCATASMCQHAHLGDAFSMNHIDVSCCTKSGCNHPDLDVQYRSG
Sequence of uPAR (Q03405 23-335): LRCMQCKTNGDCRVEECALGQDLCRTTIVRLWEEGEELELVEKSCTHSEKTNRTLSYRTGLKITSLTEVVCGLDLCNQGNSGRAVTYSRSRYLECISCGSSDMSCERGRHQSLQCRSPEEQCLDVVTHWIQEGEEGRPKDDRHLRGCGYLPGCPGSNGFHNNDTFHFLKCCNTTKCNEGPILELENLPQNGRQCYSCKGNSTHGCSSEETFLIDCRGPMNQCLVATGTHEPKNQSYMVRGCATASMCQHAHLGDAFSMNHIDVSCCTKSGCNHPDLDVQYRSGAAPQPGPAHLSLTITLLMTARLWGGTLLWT

| IC50 (soluble uPAR; read-out: IC50) | Compound | also measured |
| --- | --- | --- |
| 225 ± 40 nM | CC(C)C[C@H](NC(=O)[C@H](Cc1ccc(O)cc1)NC(=O)[C@H](CS)NC(=O)[C@@H](CO)NC(=O)[C@H](Cc1ccccc1)NC(=O)[C@H](CC(N)=O)NC(=O)[C@@H](N)CC(C)C)C(=O)N[C@@H](Cc1c[nH]c2ccccc12)C(=O)N[C@@H](CS)C(=O)N[C@H](C(=O)O)[C@@H](C)O [SEQ ID NO: 11, LNFdSCYLWCT] (H-LNF[dS]CYLWCT-OH) | – |
| – | uPA12-32: The critical domain alone, residues 12-32 of the uPA EGF-like domain (DCLNGGTCVSNKYFSNIHWCN; UniProt P00749 32-52, looked up, fragment) | affinity relative to intact ATF (fold less) (uPAR): about 100 fold; Kd (uPAR; read-out: affinity for uPAR): 40 nM |
| 79 ± 10 nM | CC(C)C[C@H](NC(=O)[C@H](Cc1ccc(O)cc1)NC(=O)[C@H](CS)NC(=O)[C@@H](CO)NC(=O)[C@H](Cc1ccccc1)NC(=O)[C@H](CS)NC(=O)[C@@H](N)CC(C)C)C(=O)N[C@@H](Cc1cccc2ccccc12)C(=O)N[C@@H](Cc1ccc(O)cc1)C(=O)N[C@H](C(=O)O)[C@@H](C)O [SEQ ID NO: 10, LCFdSCYLnAYT] (H-LCF[dS]CYL[1Nal]YT-OH) | – |
| 7 nM and 11 nM | CC(C)C[C@H](NC(=O)[C@H](Cc1ccc(O)cc1)NC(=O)[C@H](CCC(N)=O)NC(=O)[C@@H](CO)NC(=O)[C@H](Cc1ccccc1)NC(=O)[C@H](CC(N)=O)NC(=O)[C@@H](N)CC(C)C)C(=O)N[C@@H](Cc1c[nH]c2ccccc12)C(=O)N[C@@H](Cc1ccc(O)cc1)C(=O)N[C@H](C(=O)O)[C@@H](C)O [SEQ ID NO: 5, LNFdSQYLWYT] (H-LNF[dS]QYLWYT-OH) | – |
| 8 nM and 14 nM | CC(C)C[C@H](NC(=O)[C@H](Cc1ccc(O)cc1)NC(=O)[C@@H](CS)NC(=O)CNC(=O)[C@H](Cc1ccccc1)NC(=O)[C@H](CC(N)=O)NC(=O)[C@@H](N)CC(C)C)C(=O)N[C@@H](Cc1c[nH]c2ccccc12)C(=O)N[C@@H](CS)C(=O)N[C@H](C(=O)O)[C@@H](C)O [SEQ ID NO: 8, LNFGdCYLWCT] (H-LNFG[dC]YLWCT-OH) | – |
| – | CC(C)C[C@H](NC(=O)[C@H](Cc1ccc(O)cc1)NC(=O)[C@H](CCC(N)=O)NC(=O)CNC(=O)[C@H](Cc1ccccc1)NC(=O)[C@H](CC(N)=O)NC(=O)[C@@H](N)CC(C)C)C(=O)N[C@@H](Cc1cccc2ccccc12)C(=O)N[C@@H](Cc1ccc(O)cc1)C(=O)N[C@H](C(=O)O)[C@@H](C)O [SEQ ID NO: 4, LNFGQYLnAYT] (H-LNFGQYL[1Nal]YT-OH) | IC50 (soluble uPAR; IC50 (nM)): 7 nM and 6 nM |
| 41 ± 17 nM | CC(C)C[C@H](NC(=O)[C@H](Cc1ccc(O)cc1)NC(=O)[C@H](CCC(N)=O)NC(=O)CNC(=O)[C@H](Cc1ccccc1)NC(=O)[C@H](CC(N)=O)NC(=O)[C@@H](N)CC(C)C)C(=O)N[C@@H](Cc1c[nH]c2ccccc12)C(=O)N[C@@H](Cc1ccc(O)cc1)C(=O)N[C@H](C(=O)O)[C@@H](C)O [SEQ ID NO: 1, LNFGQYLWYT] (H-LNFGQYLWYT-OH) | – |
| 9 nM and 23 nM | CC(C)C[C@H](NC(=O)[C@H](Cc1ccc(O)cc1)NC(=O)[C@H](CS)NC(=O)[C@@H](CO)NC(=O)[C@H](Cc1ccccc1)NC(=O)[C@H](CS)NC(=O)[C@@H](N)CC(C)C)C(=O)N[C@@H](Cc1c[nH]c2ccccc12)C(=O)N[C@@H](Cc1ccc(O)cc1)C(=O)N[C@H](C(=O)O)[C@@H](C)O [SEQ ID NO: 9, LCFdSCYLWYT] (H-LCF[dS]CYLWYT-OH) | – |
| – | fucosylated EGF-like domain: fucosylated EGF-like domain (uPA4-43, produced by cleavage from pro-uPA) (LHQVPSNCDCLNGGT(Fuc)CVSNKYFSNIHWCNCPKKFGGQHCE; cysteine pairing not given here; UniProt P00749 24-63, looked up, fragment) | mitogenic activity [1]: Neither fucosylated nor non-fucosylated EGF-like domain was mitogenic; mitogenic activity [2]: mitogenic |
| 33 ± 3 nM | CC(C)C[C@H](NC(=O)[C@H](Cc1ccc(O)cc1)NC(=O)[C@H](CCC(N)=O)NC(=O)[C@@H](CO)NC(=O)[C@H](Cc1ccccc1)NC(=O)[C@H](CC(N)=O)NC(=O)[C@@H](N)CC(C)C)C(=O)N[C@@H](Cc1cccc2ccccc12)C(=O)N[C@@H](Cc1ccc(O)cc1)C(=O)N[C@H](C(=O)O)[C@@H](C)O [SEQ ID NO: 7, LNFdSQYLnAYT] (H-LNF[dS]QYL[1Nal]YT-OH) | – |
